The values that follow come from ChEMBL document CHEMBL1201862, “PubChem BioAssay data set” (2004).

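All cell lines were grown in 96-well plates and treated with compound for 48 hours. GI50 marks 50% less growth.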 Activity calls are given as the source filed them. Rule as the data show it: active = GI50 up to about 1.1 µM and inactive = higher. Non-standard residues stand in square brackets, D forms with d. Residues, ends and D or L forms follow the SMILES beside them. *: point of attachment. Benzoyl(4-OMe) = COc1ccc(C(=O)*)cc1; 2Thi = N[CH](Cc1cccs1)C(=O)O

What all share (experiment): NCI tumour cell line growth inhibition, 48 h
The test system of experiment [1] is CAKI-1.
Experiment [2] relates to CCRF-CEM.
In experiment [3] the test system is DU-145.
In experiment [4] the test system is HCC 2998.
Experiment [5] concerns HOP-62.
The subject of experiment [6] is MOLT-4.
The subject of experiment [7] is NCI-H23.
Experiment [8] deals with NCI/ADR-RES.
Experiment [9] relates to OVCAR-3.
The subject of experiment [10] is PC-3.
For experiment [11], the system named is RXF 393.
Experiment [12] has as its system SF-268.
Experiment [13] relates to SF-539.
The subject of experiment [14] is SK-MEL-28.
Experiment [15] has as its system SNB-19.
Experiment [16] deals with SNB-75.
In experiment [17] the test system is SR.
Experiment [18] concerns SW-620.
Experiment [19] relates to UACC-62.
Experiment [20] has as its system UO-31.

Take `CCC(C)C(NC(=O)C(Cc1cccs1)NC(=O)C(CC(C)C)NC(=O)C(CC(C)C)NC(=O)C(CCCCN)NC(=O)C(CCCNC(=N)N)NC(=O)c1ccc(OC)cc1)C(=O)NC(CC(C)C)C(N)=O` (stereo not drawn) ({Benzoyl(4-OMe)}-RKLL[2Thi]IL-NH2; configuration not given here): the GI50 in experiment [1] is > 100 µM (inactive); in experiment [2] it was 78.2 µM (inactive); in experiment [3], > 100 µM (inactive); in experiment [4], > 100 µM (inactive); in experiment [5], > 100 µM (inactive); in experiment [6], > 100 µM (inactive). Besides, the GI50 in experiment [7], in experiment [8], in experiment [9], in [10], in experiment [11] and in [12] was > 100 µM (inactive) in each case. The GI50 in [13], in experiment [14], in [15], in experiment [16], in experiment [17] and in experiment [18] was > 100 µM (inactive) throughout. For the same molecule, the GI50 in experiment [19] and in [20] was > 100 µM (inactive) throughout.
As to `Cc1cc(/N=C/c2ccc(N(C)C)cc2)n(-c2ccccc2)n1`, the GI50 in experiment [1] was 62.7 µM (inactive); in experiment [2], 22.2 µM (inactive); in [3] it was 35.6 µM (inactive); in experiment [4] it was 20.1 µM (inactive); in experiment [5], 17 µM (inactive); in experiment [6], 42.6 µM (inactive). Besides, the GI50 in experiment [7] was 51.2 µM (inactive); in experiment [8] it was 24.7 µM (inactive); in [9], 9.16 µM (inactive); in [10] it was 48.4 µM (inactive); in experiment [11], 44.4 µM (inactive); in experiment [12], 74.3 µM (inactive). Also, the GI50 in experiment [13] was 45.9 µM (inactive); in experiment [14], > 100 µM (inactive); in experiment [15] it was 61.2 µM (inactive); in [16], 40.6 µM (inactive); in [17], 19.1 µM (inactive); in experiment [18] it was 34.9 µM (inactive). For the same molecule, the GI50 in experiment [19] is 86.7 µM (inactive); in experiment [20] it was > 100 µM (inactive).
Turning to `COc1cc2c(=O)cnoc2cc1O`, the GI50 in [1], in experiment [2], in [3], in experiment [4], in experiment [6] and in experiment [7] was > 100 µM (inactive) in each case. The GI50 in [8], in [9], in [10], in [11], in experiment [12] and in experiment [13] was > 100 µM (inactive) in each case. The GI50 in [14], in [15], in [16], in [17], in experiment [18] and in experiment [19] was > 100 µM (inactive) in each case. The GI50 in experiment [20] is > 100 µM (inactive).
As to `Cn1[nH]nn/c1=N\N=C\c1ccccc1`, the GI50 in experiment [1], in experiment [2], in experiment [3], in [4], in [5] and in experiment [6] was > 10 µM (inactive) in each case. In addition, the GI50 in experiment [7], in experiment [8], in experiment [9], in experiment [10], in experiment [11] and in experiment [12] was > 10 µM (inactive) in each case. For the same molecule, the GI50 in experiment [13], in experiment [14], in experiment [15], in [16], in experiment [17] and in experiment [18] was > 10 µM (inactive) throughout. The GI50 in experiment [19] and in experiment [20] was > 10 µM (inactive) each time.
Consider `CCOP(=O)(CCCC(O)CNc1cc(Cl)nc(N)n1)OCC` (stereo not drawn), for which the GI50 in experiment [1], in experiment [2], in experiment [3], in experiment [4], in experiment [5] and in experiment [6] was > 100 µM (inactive) throughout. In addition, the GI50 in experiment [7], in [8], in [9], in experiment [10], in experiment [11] and in experiment [12] was > 100 µM (inactive) in each case. In addition, the GI50 in experiment [13], in experiment [14], in experiment [16], in experiment [17], in experiment [18] and in [19] was > 100 µM (inactive) in each case. Further, in experiment [20], the GI50 was > 100 µM (inactive).
As for `CCSc1cc2c(cc1O)CC[C@@H]1[C@@H]2CC[C@]2(C)[C@@H](O)CC[C@@H]12`, the GI50 in experiment [1] is 12.6 µM (inactive); in experiment [2], 10.1 µM (inactive); in [3], 24.5 µM (inactive); in [4], 13.9 µM (inactive); in experiment [5], 15.7 µM (inactive); in experiment [6], 4.98 µM (inactive). In addition, the GI50 is 18.8 µM (inactive) in experiment [7]; 5.18 µM (inactive) in experiment [8]; 5.71 µM (inactive) in experiment [10]; 21.5 µM (inactive) in experiment [11]; 29 µM (inactive) in experiment [12]; 15.8 µM (inactive) in experiment [13]. Besides, the GI50 was 14.2 µM (inactive) in [14]; 12.1 µM (inactive) in experiment [15]; 15.2 µM (inactive) in experiment [16]; 4.88 µM (inactive) in [17]; 3.47 µM (inactive) in experiment [18]; 11.2 µM (inactive) in experiment [19]. The GI50 in experiment [20] is 15.4 µM (inactive).
Regarding `CCCc1cc(=O)oc2c3c(c4c(c12)OC(C)(C)C=C4)O[C@@H](C)[C@H](C)C3=O`, the GI50 is 28.9 µM (inactive) in experiment [1]; 15.1 µM (inactive) in [2]; 19.5 µM (inactive) in [3]; 15.3 µM (inactive) in experiment [4]; 18.5 µM (inactive) in experiment [5]; 6.61 µM (inactive) in experiment [6]. The GI50 in experiment [7] is 17 µM (inactive); in experiment [8], 12.5 µM (inactive); in experiment [9] it was 17.2 µM (inactive); in experiment [10], 15.5 µM (inactive); in [11] it was > 10 µM (inactive); in [12], 17.1 µM (inactive). The GI50 is 17.7 µM (inactive) in experiment [13]; 13 µM (inactive) in [14]; 17.8 µM (inactive) in experiment [15]; 13.6 µM (inactive) in [16]; 10.2 µM (inactive) in experiment [17]; 13.4 µM (inactive) in [18]. The GI50 in experiment [20] is 15.8 µM (inactive).
For `N=C(N)c1ccc(/N=N\c2c(O)ccc3cc4c(/N=N\c5ccc(C(=N)N)cc5)c(O)ccc4cc23)cc1`, the GI50 is > 100 µM (inactive) in experiment [1]; 37.2 µM (inactive) in [2]; > 100 µM (inactive) in experiment [3]; > 100 µM (inactive) in experiment [4]; 45.4 µM (inactive) in experiment [5]; 37.8 µM (inactive) in [6]. Also, the GI50 in [8] was > 100 µM (inactive); in experiment [9] it was > 100 µM (inactive); in experiment [10], > 100 µM (inactive); in [11], > 100 µM (inactive); in [12] it was 95.3 µM (inactive); in experiment [13] it was 94.8 µM (inactive). The GI50 in [14] is > 100 µM (inactive); in [15] it was > 100 µM (inactive); in [16], > 100 µM (inactive); in [17], 26.6 µM (inactive); in [18] it was 87.1 µM (inactive); in experiment [19], > 100 µM (inactive). Further, the GI50 in experiment [20] is 53.1 µM (inactive).
On to `Cc1ccc2c(c1)CC1(Cc3cc(C)ccc3C1=O)C2=O`, for which the GI50 in experiment [1], in experiment [2], in [3], in experiment [4], in experiment [5] and in [6] was > 100 µM (inactive) each time. Also, the GI50 in [7], in experiment [8], in experiment [9], in experiment [10], in experiment [11] and in experiment [12] was > 100 µM (inactive) in each case. In addition, the GI50 in experiment [13], in [14], in experiment [15], in [16], in [17] and in [18] was > 100 µM (inactive) in each case. For the same molecule, in experiment [20], the GI50 was > 100 µM (inactive).
Consider `Cc1cc2c(c3oc(C(O)(CO)C4CO4)cc(=O)c13)C(=O)c1c(O)cccc1C2=O` (stereo not drawn), for which the GI50 in experiment [1] was 0.000463 µM (active); in [2], 4.14e-05 µM (active); in experiment [3] it was 0.000552 µM (active); in [4], 0.00131 µM (active); in experiment [5] it was 0.00147 µM (active); in [6] it was 0.000145 µM (active). Further, the GI50 in experiment [8] was 0.00129 µM (active); in experiment [9] it was 0.0029 µM (active); in experiment [10] it was 0.000841 µM (active); in experiment [11], 0.00125 µM (active); in [12], 0.00156 µM (active); in experiment [13], 0.000662 µM (active). The GI50 in experiment [14] is 0.00219 µM (active); in experiment [15], 0.00119 µM (active); in experiment [16] it was 0.00122 µM (active); in experiment [17], 0.000213 µM (active); in [18], 0.000377 µM (active); in [19] it was 0.00119 µM (active). The GI50 in experiment [20] was 0.000154 µM (active).
